Reference: patent publication US20200093768A1, “METHOD FOR TREATING DIABETES” (Huanggang Normal University, priority 2018, published 2020)
Marks after values point to notes of the source that are not given here.

Experiments:
[1] = tested on: Zucker diabetic fatty (ZDF) rats; test: Clinical chemistry analysis: insulin, adiponectin, lipid parameters; format: in vivo, rat
Description: Plasma analysis of insulin, adiponectin, cytokines and a full clinical chemistry panel with lipid parameters was performed at CRL using commercially available ELISA and colorimetric kits.

[2] = tested on: Zucker diabetic fatty (ZDF) rats; test: HbA1c analysis in whole blood; format: in vivo, rat; conditions: after 30 days of treatment, versus ZDF controls (FIG. 3A)
Description: On study day 30, blood was collected at CRL. […] Glycated hemoglobin (HbA1c) levels in venous whole blood were determined at CRL using the HbA1c Now test kit (Bayer, Whippany, N.J.). HbA1c was measured in treatment groups by immunoassay with anti-HbA1c using tail nick whole blood.

[3] = tested on: Zucker diabetic fatty (ZDF) rats; test: Fasted and fed blood glucose in ZDF rats; conditions: for Fasted blood glucose levels: 5 hrs fasted, versus ZDF vehicle control (FIG. 1A)
hyperglycemic adults = conditions: clinical pilot study, low dosage of ibuprofen; cited from earlier work
[4] = Body weight, food intake and BMI of ZDF rats treated once daily for 30 days; format: in vivo, rat; design: Food Intake / BMI: unit not given here; conditions: for Change in body weight versus ZDF control (in words): ibuprofen between day 8 and 26; for BMI / Body Weight / Food Intake: oral gavage once daily (metformin 250 mg/kg, ibuprofen 100 mg/kg); for BMI / Food Intake: n=8; for Body Weight: n=8, in g (unit assumed); for Food Intake: recorded weekly
[5] = tested on: Zucker diabetic fatty (ZDF) rats; test: Anti-inflammatory cytokines (IL-4, IL-10, IL-13) by ELISA; format: in vivo, rat; conditions: for IL-10 plasma levels: versus ZDF controls (FIG. 5B)
Text: On study day 30, blood was collected at CRL.
The expression of inflammatory genes in blood and epididymal adipose tissue was next analyzed. A panel of three anti-inflammatory cytokines in whole blood was quantified by ELISA analysis as a measure for systemic inflammation (FIG. 5). IL-4, IL-10 and IL-13 are involved in the reduction of the inflammatory response through inhibition of NFκB signaling and cytokine release from macrophages.

[6] = tested on: Zucker diabetic fatty (ZDF) rats; test: Oral glucose tolerance test (OGTT) on study day 29; conditions: day 29, overnight fasted, glucose 2 g/kg, versus ZDF vehicle control, metformin from 15 min (p<0.01), ibuprofen at 15 min (p<0.01) and 30 min (p<0.05)
[7] = tested on: inflammatory genes (COX-2, ICAM-1, IL-1β, IL-6, TNF-α) in whole blood; test: TaqMan qPCR of inflammatory genes in whole blood; format: in vivo, rat; conditions: ZDF rats, normalized to GAPDH, versus ZDF controls (FIG. 6A)
Description: On study day 30, blood was collected at CRL. HbA1c was measured at 8 hrs on a drop of tail whole blood and then animals were fasted. At 11 hrs, animals were dosed per normal and euthanized at 13 hrs by CO2 asphyxiation. Blood was withdrawn by cardiac puncture and 1 mL of whole blood placed into cryo vials for RNA extraction. Remaining blood was centrifuged (at 2200×g for 10 minutes at 22° C.) and serum (500 uL) pipetted into 96 well plates on dry ice for analysis of the following: insulin, adiponectin, clinical chemistry panel with lipid parameters, and the inflammatory panel. Liver, epididymal fat, kidney, heart and spleen were collected and a representative piece was snap frozen. 100 mg of tissue was transferred into 1.5 mL cold RNA later tubes and stored overnight at 4° C. before being moved to −20° C. […]
In the next set of experiments, the expression of a subset of inflammatory genes were quantified in whole blood (FIG. 6A) and epididymal fat tissue (FIG. 6B): cyclooxygenase-2 (COX-2), intracellular adhesion molecule-1 (ICAM-1), interleukin-1β (IL-1β), interleukin-6 (IL-6) and tumor necrosis factor-α (TNF-α) by TaqMan qPCR analysis. […]

[8] = after 30 days, versus ZDF controls (FIG. 4D-F)
[9] = Day 29 (after overnight fasting), mean

For `CC(C)Cc1ccc(C(C)C(=O)O)cc1` (stereo not drawn) [ibuprofen, 2-(4-Isobutylphenyl)propanoic acid], the Fasting cholesterol [1, 8] was “strong decline”, the HDL [1, 8] was “strong decline” and the “Glycated hemoglobin (HbA1c)” value [2] was “attenuated the glycation of hemoglobin”. For the same compound, the “Fasted blood glucose levels” value [3] was “did reduce fasting blood glucose levels but this was not significant”, the “Glucose and insulin in hyperglycemic adults” value (hyperglycemic adults) was “did not reveal major differences” and the “Change in food intake versus ZDF control (in words)” value ([4]; chronic treatment) was “lower food intake”. The “Change in body weight versus ZDF control (in words)” value ([4]; chronic treatment) was “decline in body weight”, the BMI ([4]; Day 1, mean) was 2.67 and the “Body Weight” value ([4]; Day 1, mean) was 386.5. The “Body Weight” value ([4]; Day 4, mean) was 370.8, the BMI ([4]; Day 8, mean) was 2.51* and the “Body Weight” value ([4]; Day 8, mean) was 376.4**. The “Body Weight” value ([4]; Day 11, mean) was 379.4*, the BMI ([4]; Day 15, mean) was 2.44 and the “Body Weight” value ([4]; Day 15, mean) was 377.9. For the same compound, the “Body Weight” value ([4]; Day 19, mean) was 376.3*, the BMI ([4]; Day 22, mean) was 2.47 and the “Body Weight” value ([4]; Day 22, mean) was 385.8. For the same compound, the “Body Weight” value ([4]; Day 26, mean) was 380.6*, the “Body Weight” value [4, 9] was 359.0 and the BMI ([4]; Day 29, mean) was 2.28. The “Food Intake” value ([4]; Day 8, mean) was 225.4**, the “Food Intake” value ([4]; Day 15, mean) was 258.8* and the “Food Intake” value ([4]; Day 22, mean) was 233.5*. The “Food Intake” value ([4]; Day 28, mean) was 239.3*, the IL-4 level ([5]; versus ZDF controls (FIG. 5A)) was “significantly increased” and the IL-10 plasma levels [5] was “No significant changes”. The IL-13 levels ([5]; versus ZDF controls (FIG. 5C)) was “increased” and the “Blood glucose in OGTT” value [6] was “significant decrease in blood glucose”.
For `CN(C)C(=N)NC(=N)N` [metformin, 1,1-dimethylbiguanide], the Fasting cholesterol [1, 8] was “No significant differences”, the HDL [1, 8] was “No significant differences” and the LDL [1, 8] was “No significant differences”. For the same compound, the Plasma insulin levels ([1]; day 30 (FIG. 3B)) was 1.54 ng/mL, the “Glycated hemoglobin (HbA1c)” value [2] was “did not significantly affect” and the “Fasted blood glucose levels” value [3] was “significant decrease”. The Fed glucose levels ([3]; fed, versus ZDF vehicle control (FIG. 1B)) was “significant higher levels on day 22 and 28”, the ICAM-1 gene expression [7] was “no differences” and the “Change in BMI versus ZDF control (in words)” value ([4]; chronic treatment) was “did not cause any significant changes”. The “Change in food intake versus ZDF control (in words)” value ([4]; chronic treatment) was “did not cause any significant changes”, the “Change in body weight versus ZDF control (in words)” value ([4]; chronic treatment) was “did not cause any significant changes” and the BMI ([4]; Day 1, mean) was 2.60. The “Body Weight” value ([4]; Day 1, mean) was 376.6, the “Body Weight” value ([4]; Day 4, mean) was 377.8 and the BMI ([4]; Day 8, mean) was 2.57. The “Body Weight” value ([4]; Day 8, mean) was 388.5, the “Body Weight” value ([4]; Day 11, mean) was 396.1 and the BMI ([4]; Day 15, mean) was 2.47. The “Body Weight” value ([4]; Day 15, mean) was 390.9, the “Body Weight” value ([4]; Day 19, mean) was 400.8 and the BMI ([4]; Day 22, mean) was 2.52. The “Body Weight” value ([4]; Day 22, mean) was 399.9, the “Body Weight” value ([4]; Day 26, mean) was 405.6 and the “Body Weight” value [4, 9] was 378.9. For the same compound, the BMI ([4]; Day 29, mean) was 2.39, the “Food Intake” value ([4]; Day 8, mean) was 255.1 and the “Food Intake” value ([4]; Day 15, mean) was 309.9. For the same compound, the “Food Intake” value ([4]; Day 22, mean) was 299.1, the “Food Intake” value ([4]; Day 28, mean) was 278.8 and the IL-10 plasma levels [5] was “No significant changes”. For the same compound, the “Blood glucose in OGTT” value [6] was “significant decline in blood glucose”.
